Assay results published in US20240360194A1, “New Peptides as Potent and Selective GIP Receptor Agonists” (Sanofi, priority 2021, published 2024).
Converted amounts (≈) assume the structure as drawn. Numbered stars: 1 amine (or outer) side, 2 acyl side, 3 side chain; on linkers, the order of the positions; unused ones are H or OH. Square brackets hold non-standard residues; d marks the D form. Side chains are listed from the residue outwards. Peptide text beside a SMILES is read from it. * marks the point of attachment. C18 diacid = O=C(O)CCCCCCCCCCCCCCCCC(=O)*; γGlu = O=C(O)[C@H](CCC(=O)[*:2])N[*:1]; αMeF = C[C@](N)(Cc1ccccc1)C(=O)O; hLeu = CC(C)CC[C@H](N)C(=O)O; AEEA = NCCOCCOCC(=O)O; Aib = CC(C)(N)C(=O)O

Columns and labels:
[1] = Solubility assessment (UHPLC-UV of supernatant, target 10 mg/ml); format: physicochemical; settings: for solubility at 24 h: pH 7.4, Soluble amount
Method: Prior to the solubility measurement of a peptide batch, its purity was determined through UHPLC/MS.
Therefore, solutions from solid samples were prepared in a buffer system with a concentration of 10 mg/ml compound based on the previously determined % purity: • Solubility buffer system A) 100 mM phosphate buffer pH 7.4 • Solubility buffer system B) 8 mM phosphate buffer pH 7.4, 14 mg/ml propylene glycol, 5.5 mg/ml phenol • Solubility buffer system C) 100 mM phosphate buffer pH 7.4, 2.7 mg/ml m-cresol
UHPLC-UV was performed after 1 h of gentle agitation and storage at 5° C. overnight (24 h) from the supernatant, which was obtained after 15 min of centrifugation at 2500 RCF (relative centrifugal acceleration).
The different UV extinction coefficients of sample and reference peptide were calculated based on the different amino acid sequences and considered in the concentration calculation.
The analytical method used was Analytical UHPLC Method A.
Peptide samples were prepared in solubility buffer system A or C and solubility was assessed as described in Methods.

[2] = biological target: human GLP-1 receptor (hGLP-1R) (Homo sapiens, UniProt P43220); experiment: In vitro cellular cAMP assay for GLP-1 receptor efficacy (HEK-293 cell line over-expressing receptor); format: cell-based; settings: HEK-293, 0.1% BSA
human GIP receptor = biological target: T1, human GIP receptor (Homo sapiens, UniProt P48546); experiment: In vitro cellular cAMP assay for GIP receptor efficacy (human adipocytes); format: cell-based; settings: for EC50: read-out: hGIPR EC50; for Emax: read-out: hGIPR Emax
T1 construct: human adipocytes endogenously expressing the human GIP receptor; host or cells: human preadipocytes (Lonza) differentiated to adipocytes
T1 sequence (P48546 22-466): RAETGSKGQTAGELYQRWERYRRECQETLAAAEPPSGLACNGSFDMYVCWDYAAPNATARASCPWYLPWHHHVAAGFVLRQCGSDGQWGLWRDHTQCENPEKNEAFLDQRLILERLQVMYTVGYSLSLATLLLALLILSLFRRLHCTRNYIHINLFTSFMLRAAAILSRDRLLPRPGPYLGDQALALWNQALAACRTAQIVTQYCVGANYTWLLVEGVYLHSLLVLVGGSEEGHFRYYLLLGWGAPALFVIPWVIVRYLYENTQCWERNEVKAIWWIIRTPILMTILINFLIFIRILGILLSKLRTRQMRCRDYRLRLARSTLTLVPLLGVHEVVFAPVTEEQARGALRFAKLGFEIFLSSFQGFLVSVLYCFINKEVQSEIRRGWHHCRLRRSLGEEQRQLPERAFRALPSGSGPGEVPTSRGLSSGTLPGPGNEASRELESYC
Method: For this, one vial of human preadipocytes (˜10^6 cells; Lonza) was thawed in a T-75 cell culture dish. The cells were cultivated at 37° C., 5% CO2, 95% humidity in Preadipocyte Growth Medium with Supplement Mix from Promo Cell.
After 3 days, the cells were washed with PBS and 1.5 ml Trypsin, incubated for 4 min, then resuspended in medium, centrifugated for 10 min @ 300 rcf RT, resuspended again and distributed to four T-75 cell culture dishes. Again, the cells were cultivated at 37° C., 5% CO2, 95% humidity.
After 5 days, the cells were washed with PBS and 1.5 ml Trypsin, incubated for 4 min, then resuspended in medium, centrifugated for 10 min @ 300 rcf RT, resuspended again and sawn in T-75 dishes (2.5×10^6 cells per dish) in 15 ml Differentiation medium each.
The differentiation medium had the following composition: DMEM (Gibco), Ham's F10 (Gibco), 15 mM HEPES (Gibco), 3% FCS (PAA), 33 μM biotin (Sigma-Aldrich), 17 μM Pantothenate (Sigma-Aldrich), 0.1 μM human insulin (Sigma-Aldrich), 1 μM dexamethason (Sigma-Aldrich), 0.1 μM PPARgamma agonist (#R2408, Sigma-Aldrich), 0.6×Anti-Anti (#15240, ThermoFisher), 200 μM IBMX (AppliChem), and 0.01 μM L-thyroxine (Sigma-Aldrich).
After 6 days of differentiation, 5000 cells per well were dispensed on a 96-well plate (#CLS3694 from Corning®, Sigma-Aldrich). For measurement of cAMP generation, 25 μL of test compound was added to each well of the 96-well plate, followed by incubation for 30 min at room temperature.
The cAMP generated following test compound stimulation was determined using a kit from Cisbio Corp. based on HTRF (Homogenous Time Resolved Fluorescence). The cAMP assay was performed according to manufacturer's instructions (Cisbio).
The cAMP content of cells was determined using a kit from Cisbio Corp. based on HTRF (Homogenous Time Resolved Fluorescence).
After addition of HTRF reagents diluted in lysis buffer (kit components), the plates were incubated for 1 h, followed by measurement of the fluorescence ratio at 665/620 nm.

[3] = biological target: T2, human GIP receptor (hGIPR) (Homo sapiens, UniProt P48546); experiment: Binding assay, displacement of [125I]GIP from HEK-293 membranes over-expressing GIPR (SPA); settings: [125I]GIP displacement
T2 sequence (P48546 22-466): T1 sequence (P48546 22-466)
Method: (1) Preparation of Membranes from HEK-293 Cells Over-Expressing GIPR or GLP-1R
HEK-293 cells recombinantly over-expressing GIPR or GLP-1R were grown to 50% confluency, washed with warm 1×PBS (Gibco) and detached in HEPES/EDTA-buffer (100 mM HEPES pH 7.5, 5 mM EDTA). Cells were harvested by centrifugation at 4° C. and 3000×g and the pellets were stored at −80° C. until further processing.
After thawing on ice, pellets were resuspended in HEPES/EDTA-buffer and homogenized on ice for 1 min using Ultra-Turray T25. After subsequent sonification the cell debris was removed by centrifugation at 1000×g and 4° C. Supernatants were then ultra-centrifuged at 100000×g and 4° C. under vacuum for 30 min. Pellets were resuspended in HEPES/EDTA/NaCl-buffer (20 mM HEPES, 1 mM EDTA, 150 mM NaCl; add 1 Complete Mini Protease inhibitor cocktail to 10 ml buffer) and protein content was determined via BCA-Protein assay.
(2) Measurement of Binding Activity of Test Compounds to Human GIPR or GLP-1R

human GLP-1 receptor (hGLP-1R), sequence (P43220 24-463): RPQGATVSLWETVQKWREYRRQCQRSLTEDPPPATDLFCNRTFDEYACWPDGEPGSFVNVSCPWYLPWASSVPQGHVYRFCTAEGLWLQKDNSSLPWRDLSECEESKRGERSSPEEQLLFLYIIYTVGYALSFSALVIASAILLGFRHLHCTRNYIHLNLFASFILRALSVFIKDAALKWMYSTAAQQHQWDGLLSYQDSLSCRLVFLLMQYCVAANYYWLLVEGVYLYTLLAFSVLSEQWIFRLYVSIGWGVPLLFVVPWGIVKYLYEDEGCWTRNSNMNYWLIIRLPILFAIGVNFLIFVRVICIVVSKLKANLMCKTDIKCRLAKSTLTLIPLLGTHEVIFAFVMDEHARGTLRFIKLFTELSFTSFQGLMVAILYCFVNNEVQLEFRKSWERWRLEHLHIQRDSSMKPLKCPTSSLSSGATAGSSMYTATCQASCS

Row | Structure (SMILES) | solubility at 24 h [1] | EC50 [2] | EC50 (human GIP receptor) | Emax (human GIP receptor) | IC50 [3] | Soluble amount ([1]; 24 h, pH 7.4)
1 | CC[C@H](C)[C@H](NC(=O)[C@H](CCCNC(=N)N)NC(=O)[C@H](CC(=O)O)NC(=O)[C@H](CCCCNC(=O)COCCOCCNC(=O)COCCOCCNC(=O)CC[C@H](NC(=O)CCCCCCCCCCCCCCCCC(=O)O)C(=O)O)NC(=O)C(C)(C)NC(=O)[C@@H](NC(=O)[C@H](CO)NC(=O)[C@H](CC(C)C)NC(=O)[C@H](CC(=O)O)NC(=O)[C@H](CO)NC(=O)[C@@H](NC(=O)[C@H](Cc1ccccc1)NC(=O)[C@@H](NC(=O)CNC(=O)[C@H](CCC(=O)O)NC(=O)C(C)(C)NC(=O)[C@@H](N)Cc1ccc(O)cc1)[C@@H](C)O)[C@@H](C)CC)[C@@H](C)CC)C(=O)N[C@@H](Cc1c[nH]cn1)C(=O)N[C@@H](CCC(N)=O)C(=O)NC(C)(C)C(=O)N[C@@H](CCC(=O)O)C(=O)N[C@@H](Cc1ccccc1)C(=O)N[C@H](C(=O)N[C@@H](CCC(=O)O)C(=O)N[C@@H](Cc1c[nH]c2ccccc12)C(=O)N[C@@H](CC(C)C)C(=O)N[C@@H](CC(C)C)C(=O)N[C@@H](C)C(=O)N[C@@H](CCC(N)=O)C(=O)N[C@@H](CCCNC(=N)N)C(=O)N1CCC[C@H]1C(=O)N[C@@H](CO)C(=O)N[C@@H](CO)C(=O)NCC(=O)N[C@@H](C)C(=O)N1CCC[C@H]1C(=O)N1CCC[C@H]1C(=O)N1CCC[C@H]1C(=O)N[C@@H](CO)C(N)=O)[C@@H](C)CC [SEQ ID NO: 30, H2N-Y-Aib-E-G-T-F-I-S-D-L-S-I-Aib-K[{AEEA}2-gGlu-C18OH]-D-R-I-H-Q-Aib-E-F-I-E-W-L-L-A-Q-R-P-S-S-G-A-P-P-P-S-NH2] (H-Y[Aib]EGTFISDLSI[Aib]K([AEEA-AEEA-γGlu-C18 diacid])DRIHQ[Aib]EFIEWLLAQRPSSGAPPPS-NH2) | 8400 µg/mL (≈ 1660 µM) | > 10 nM | 0.5 nM | 138% | 0.1 nM | –
2 | CC[C@H](C)[C@H](NC(=O)[C@H](Cc1ccccc1)NC(=O)[C@H](CCC(=O)O)NC(=O)[C@H](CCC(=O)O)NC(=O)[C@H](CCC(N)=O)NC(=O)[C@H](Cc1c[nH]cn1)NC(=O)[C@@H](NC(=O)[C@H](CCCNC(=N)N)NC(=O)[C@H](CC(=O)O)NC(=O)[C@H](CCCCNC(=O)COCCOCCNC(=O)COCCOCCNC(=O)CC[C@H](NC(=O)CCCCCCCCCCCCCCCCC(=O)O)C(=O)O)NC(=O)C(C)(C)NC(=O)[C@@H](NC(=O)[C@H](CO)NC(=O)[C@H](CCC(C)C)NC(=O)[C@H](CC(=O)O)NC(=O)[C@H](CO)NC(=O)[C@@H](NC(=O)[C@H](Cc1ccccc1)NC(=O)[C@@H](NC(=O)CNC(=O)[C@H](CCC(=O)O)NC(=O)C(C)(C)NC(=O)[C@@H](N)Cc1ccc(O)cc1)[C@@H](C)O)[C@@H](C)CC)[C@@H](C)CC)[C@@H](C)CC)C(=O)N[C@@H](CCC(=O)O)C(=O)N[C@@H](Cc1c[nH]c2ccccc12)C(=O)N[C@@H](CC(C)C)C(=O)N[C@@H](CC(C)C)C(=O)N[C@@H](C)C(=O)N[C@@H](CCC(N)=O)C(=O)NCC(=O)N1CCC[C@H]1C(=O)N[C@@H](CO)C(=O)N[C@@H](CO)C(=O)NCC(=O)N[C@@H](C)C(=O)N1CCC[C@H]1C(=O)N1CCC[C@H]1C(=O)N1CCC[C@H]1C(=O)N[C@@H](CO)C(N)=O [SEQ ID NO: 34, H2N-Y-Aib-E-G-T-F-I-S-D-Hol-S-I-Aib-K[{AEEA}2-gGlu-C18OH]-DRIHQEEFIEWLLAQGPSSGAPPPS-NH2] (H-Y[Aib]EGTFISD[hLeu]SI[Aib]K([AEEA-AEEA-γGlu-C18 diacid])DRIHQEEFIEWLLAQGPSSGAPPPS-NH2) | > 9200 µg/mL | > 10 nM | 0.5 nM | 112% | 0.3 nM | >8.7 mg/mL
3 | CC[C@H](C)[C@H](NC(=O)[C@H](CCCNC(=N)N)NC(=O)[C@H](CC(=O)O)NC(=O)[C@H](CCCCNC(=O)COCCOCCNC(=O)COCCOCCNC(=O)CC[C@H](NC(=O)CCCCCCCCCCCCCCCCC(=O)O)C(=O)O)NC(=O)C(C)(C)NC(=O)[C@@H](NC(=O)[C@H](CO)NC(=O)[C@H](CC(C)C)NC(=O)[C@H](CC(=O)O)NC(=O)[C@H](CO)NC(=O)[C@@H](NC(=O)[C@H](Cc1ccccc1)NC(=O)[C@@H](NC(=O)CNC(=O)[C@H](CCC(=O)O)NC(=O)C(C)(C)NC(=O)[C@@H](N)Cc1ccc(O)cc1)[C@@H](C)O)[C@@H](C)CC)[C@@H](C)CC)C(=O)N[C@@H](Cc1c[nH]cn1)C(=O)N[C@@H](CCC(N)=O)C(=O)N[C@@H](CCC(=O)O)C(=O)N[C@@H](CCC(=O)O)C(=O)N[C@@](C)(Cc1ccccc1)C(=O)N[C@H](C(=O)N[C@@H](CCC(=O)O)C(=O)N[C@@H](Cc1c[nH]c2ccccc12)C(=O)N[C@@H](CC(C)C)C(=O)N[C@@H](CC(C)C)C(=O)N[C@@H](C)C(=O)N[C@@H](CCC(N)=O)C(=O)NCC(=O)N1CCC[C@H]1C(=O)N[C@@H](CO)C(=O)N[C@@H](CO)C(=O)NCC(=O)N[C@@H](C)C(=O)N1CCC[C@H]1C(=O)N1CCC[C@H]1C(=O)N1CCC[C@H]1C(=O)N[C@@H](CO)C(N)=O)[C@@H](C)CC [SEQ ID NO: 32, H2N-Y-Aib-E-G-T-F-I-S-D-L-S-I-Aib-K[{AEEA}2-gGlu-C18OH]-D-R-I-H-Q-E-E-Mph-I-E-W-L-L-A-Q-G-P-S-S-G-A-P-P-P-S-NH2] (H-Y[Aib]EGTFISDLSI[Aib]K([AEEA-AEEA-γGlu-C18 diacid])DRIHQEE[αMeF]IEWLLAQGPSSGAPPPS-NH2) | 8200 µg/mL (≈ 1630 µM) | > 10 nM | 0.6 nM | 109% | 0.9 nM | –
